Measured values published in patent US20260176320A1, “MODULATORS OF G-PROTEIN COUPLED RECEPTORS” (priority 2018, published 2026).
Read-outs that look alike come from different tables or passages of the source. Numbered stars: 1 amine (or outer) side, 2 acyl side, 3 side chain; on linkers, the order of the positions; unused ones are H or OH. Square brackets hold non-standard residues; d marks the D form. Side chains are listed from the residue outwards. Peptide text beside a SMILES is read from it. * marks the point of attachment. γGlu = O=C(O)[C@H](CCC(=O)[*:2])N[*:1]; X2 = O=C(CSCC(=O)*)NCCN1C(=O)CSC1=O; Palmitoyl = CCCCCCCCCCCCCCCC(=O)*; Aib = CC(C)(N)C(=O)O

Legend:
[1] = target: GLP-1R (Homo sapiens, UniProt P43220); assay: HitHunter cAMP assay (GLP-1R); format: cell-based; conditions: for Emax: read-out: (Emax) GLP-1R
Sequence of GLP-1R (P43220 24-463): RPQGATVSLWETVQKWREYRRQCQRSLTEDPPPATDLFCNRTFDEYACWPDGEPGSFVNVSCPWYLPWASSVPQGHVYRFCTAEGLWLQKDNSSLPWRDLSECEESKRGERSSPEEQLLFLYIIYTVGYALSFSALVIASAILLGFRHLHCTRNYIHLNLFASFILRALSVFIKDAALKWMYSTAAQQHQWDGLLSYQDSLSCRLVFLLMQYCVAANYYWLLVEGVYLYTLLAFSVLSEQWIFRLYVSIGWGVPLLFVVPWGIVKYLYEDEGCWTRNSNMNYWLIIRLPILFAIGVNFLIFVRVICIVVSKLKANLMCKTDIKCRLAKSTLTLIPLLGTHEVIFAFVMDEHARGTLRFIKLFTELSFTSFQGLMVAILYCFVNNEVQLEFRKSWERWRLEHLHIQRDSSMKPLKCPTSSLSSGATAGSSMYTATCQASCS
Procedure, shortened: (§1)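 Suspension cells expressing each receptor (10,000 per well) in HBSS with 10 mM HEPES, 625 μM IBMX and 0.2% BSA were treated with a 22-point 2-fold agonist series in duplicate for 30 minutes at room temperature. cAMP was detected by antibody immunocompetition with luminescence read after overnight incubation.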

[2] = target: T1, GIP-R (Homo sapiens, UniProt P48546); assay: HitHunter cAMP assay (GIP-R); format: cell-based; conditions: for EC50 / Emax: cAMP; for Emax: read-out: (Emax) GIP-R
T1 sequence (P48546 22-466): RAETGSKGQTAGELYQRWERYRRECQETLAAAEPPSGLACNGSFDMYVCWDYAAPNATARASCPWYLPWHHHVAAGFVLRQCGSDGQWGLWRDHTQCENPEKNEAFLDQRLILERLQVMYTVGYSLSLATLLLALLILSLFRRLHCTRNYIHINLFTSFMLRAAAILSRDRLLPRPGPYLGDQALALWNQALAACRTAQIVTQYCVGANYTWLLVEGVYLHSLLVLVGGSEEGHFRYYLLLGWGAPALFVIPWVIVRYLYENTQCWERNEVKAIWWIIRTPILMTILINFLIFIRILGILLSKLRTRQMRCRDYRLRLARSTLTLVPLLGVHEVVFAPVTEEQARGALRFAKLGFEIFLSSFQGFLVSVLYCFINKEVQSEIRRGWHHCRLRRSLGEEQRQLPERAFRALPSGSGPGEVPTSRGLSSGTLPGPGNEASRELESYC
Procedure, shortened: as §1

[3] = read-out: EC50 GLP-1R/nM, Table 3A, cAMP
[4] = Table 3A, cAMP, read-out: EC50 GLP-1R/nM
[5] = Table 3A, read-out: EC50 GIP-R/nM

CC[C@H](C)[C@H](NC(=O)[C@H](CO)NC(=O)[C@H](Cc1ccc(O)cc1)NC(=O)[C@H](CC(=O)O)NC(=O)[C@H](CO)NC(=O)[C@@H](NC(=O)[C@H](Cc1ccccc1)NC(=O)[C@@H](NC(=O)CNC(=O)[C@H](CCC(=O)O)NC(=O)CSCC(=O)NCCN(C)C(=O)c1ccccc1)[C@@H](C)O)[C@@H](C)O)C(=O)N[C@@H](Cc1ccc(O)cc1)C(=O)N[C@@H](CC(C)C)C(=O)N[C@@H](CC(=O)O)C(=O)N[C@@H](CCCCN)C(=O)N[C@@H](CCC(N)=O)C(=O)N[C@@H](C)C(=O)N[C@@H](C)C(=O)NC(C)(C)C(=O)N[C@@H](CCC(=O)O)C(=O)N[C@@H](Cc1ccccc1)C(=O)N[C@H](C(=O)N[C@@H](CC(N)=O)C(=O)N[C@@H](Cc1c[nH]c2ccccc12)C(=O)N[C@@H](CC(C)C)C(=O)N[C@@H](CC(C)C)C(=O)N[C@@H](C)C(=O)NCC(=O)NCC(=O)N1CCC[C@H]1C(=O)N[C@@H](CO)C(=O)N[C@@H](CO)C(=O)NCC(=O)N[C@@H](C)C(=O)N1CCC[C@H]1C(=O)N1CCC[C@H]1C(=O)N1CCC[C@H]1C(=O)N[C@@H](CO)C(=O)N[C@@H](CCCCN)C(N)=O)C(C)C [Compound 169] showed an EC50 [1] of 1 to 10 nM, an Emax [1] of 96% and an EC50 [1, 3] of 1 to 10 nM. For the same compound, the EC50 ([2]; EC50 GIP-R/nM, Table 3) was > 1000 nM, the Emax at 1 µM ([2]; read-out: (Emax) GIP-R at 1 μM) was 6 to 8% and the EC50 ([2]; read-out: EC50 GIP-R/nM, Table 3A) was > 1000 nM.

Work on CC[C@H](C)[C@H](NC(=O)[C@H](CO)NC(=O)[C@H](Cc1ccc(O)cc1)NC(=O)[C@H](CC(=O)O)NC(=O)[C@H](CO)NC(=O)[C@@H](NC(=O)[C@H](Cc1ccccc1)NC(=O)[C@@H](NC(=O)CNC(=O)[C@H](CCC(=O)O)NC(=O)CCCCCCCCN1C(=O)CSC1=O)[C@@H](C)O)[C@@H](C)O)C(=O)N[C@@H](Cc1ccc(O)cc1)C(=O)N[C@@H](CC(C)C)C(=O)N[C@@H](CC(=O)O)C(=O)N[C@@H](CCCCN)C(=O)N[C@@H](CCC(N)=O)C(=O)N[C@@H](C)C(=O)N[C@@H](C)C(=O)NC(C)(C)C(=O)N[C@@H](CCC(=O)O)C(=O)N[C@@H](Cc1ccccc1)C(=O)N[C@H](C(=O)N[C@@H](CC(N)=O)C(=O)N[C@@H](Cc1c[nH]c2ccccc12)C(=O)N[C@@H](CC(C)C)C(=O)N[C@@H](CC(C)C)C(=O)N[C@@H](C)C(=O)NCC(=O)NCC(=O)N1CCC[C@H]1C(=O)N[C@@H](CO)C(=O)N[C@@H](CO)C(=O)NCC(=O)N[C@@H](C)C(=O)N1CCC[C@H]1C(=O)N1CCC[C@H]1C(=O)N1CCC[C@H]1C(=O)N[C@@H](CO)C(=O)N[C@@H](CCCCN)C(N)=O)C(C)C [Compound 174] yielded an Emax ([1]; Table 3, cAMP) of 17 to 73%, an Emax ([1]; Table 3A, cAMP) of 17 to 73% and an EC50 ([1]; read-out: EC50 GLP-1R/nM, Table 3, cAMP) of 10 to 1000 nM. It also gave an EC50 [1, 3] of 10 to 1000 nM, an EC50 ([2]; EC50 GIP-R/nM, Table 3) of 100 to 1000 nM and an EC50 ([2]; EC50 GIP-R/nM, Table 3A) of 100 to 1000 nM. For the same compound, the Emax ([2]; Table 3) was 30 to 66% and the Emax ([2]; Table 3A) was 30 to 66%.

CC[C@H](C)[C@H](NC(=O)[C@H](CO)NC(=O)[C@H](Cc1ccc(O)cc1)NC(=O)[C@H](CC(=O)O)NC(=O)[C@H](CO)NC(=O)[C@@H](NC(=O)[C@H](Cc1ccccc1)NC(=O)[C@@H](NC(=O)CNC(=O)[C@H](CCC(=O)O)NC(=O)CCCCCCCN1C(=O)CSC1=O)[C@@H](C)O)[C@@H](C)O)C(=O)N[C@@H](Cc1ccc(O)cc1)C(=O)N[C@@H](CC(C)C)C(=O)N[C@@H](CC(=O)O)C(=O)N[C@@H](CCCCN)C(=O)N[C@@H](CCC(N)=O)C(=O)N[C@@H](C)C(=O)N[C@@H](C)C(=O)NC(C)(C)C(=O)N[C@@H](CCC(=O)O)C(=O)N[C@@H](Cc1ccccc1)C(=O)N[C@H](C(=O)N[C@@H](CC(N)=O)C(=O)N[C@@H](Cc1c[nH]c2ccccc12)C(=O)N[C@@H](CC(C)C)C(=O)N[C@@H](CC(C)C)C(=O)N[C@@H](C)C(=O)NCC(=O)NCC(=O)N1CCC[C@H]1C(=O)N[C@@H](CO)C(=O)N[C@@H](CO)C(=O)NCC(=O)N[C@@H](C)C(=O)N1CCC[C@H]1C(=O)N1CCC[C@H]1C(=O)N1CCC[C@H]1C(=O)N[C@@H](CO)C(=O)N[C@@H](CCCCN)C(N)=O)C(C)C [Compound 175] showed an EC50 ([1]; EC50 GLP-1R/nM, Table 3, cAMP) of 10 to 100 nM, an EC50 ([1]; EC50 GLP-1R/nM, Table 3A, cAMP) of 10 to 100 nM and an Emax ([1]; Table 3, cAMP) of 87 to 94%. For the same compound, the Emax ([1]; Table 3A, cAMP) was 87 to 94%, the EC50 ([2]; EC50 GIP-R/nM, Table 3) was 10 to 100 nM and the EC50 ([2]; EC50 GIP-R/nM, Table 3A) was 10 to 100 nM. The Emax ([2]; Table 3) was 38% and the Emax ([2]; Table 3A) was 38%.

Work on CCCCCCCCCCCCCCCC(=O)N[C@@H](CCC(=O)NCCCC[C@H](NC(=O)[C@@H](NC(=O)[C@H](Cc1ccccc1)NC(=O)[C@H](CCC(=O)O)NC(=O)C(C)(C)NC(=O)[C@H](C)NC(=O)[C@H](C)NC(=O)[C@H](CCC(N)=O)NC(=O)[C@H](CCCCN)NC(=O)[C@H](CC(=O)O)NC(=O)[C@H](CC(C)C)NC(=O)[C@H](Cc1ccc(O)cc1)NC(=O)[C@@H](NC(=O)[C@H](CO)NC(=O)[C@H](Cc1ccc(O)cc1)NC(=O)[C@H](CC(=O)O)NC(=O)[C@H](CO)NC(=O)[C@@H](NC(=O)[C@H](Cc1ccccc1)NC(=O)[C@@H](NC(=O)CNC(=O)[C@H](CCC(=O)O)NC(=O)CSCC(=O)NCCN1C(=O)CSC1=O)[C@@H](C)O)[C@@H](C)O)[C@@H](C)CC)C(C)C)C(=O)N[C@@H](Cc1c[nH]c2ccccc12)C(=O)N[C@@H](CC(C)C)C(=O)N[C@@H](CC(C)C)C(=O)N[C@@H](C)C(=O)NCC(=O)NCC(=O)N1CCC[C@H]1C(=O)N[C@@H](CO)C(=O)N[C@@H](CO)C(=O)NCC(=O)N[C@@H](C)C(=O)N1CCC[C@H]1C(=O)N1CCC[C@H]1C(=O)N1CCC[C@H]1C(=O)N[C@@H](CO)C(=O)N[C@@H](CCCCN)C(N)=O)C(=O)O [Compound 197] (X2-EGTFTSDYSIYLDKQAA[Aib]EFVK([γGlu-Palmitoyl])WLLAGGPSSGAPPPSK-NH2) yielded an Emax ([1]; Table 3A, cAMP) of 95%, an EC50 [1, 4] of 10 to 100 nM and an Emax ([2]; Table 3A) of 20%. It also gave an EC50 [2, 5] of 100 to 1000 nM.

CCCCCCCCCCCCCCCC(=O)N[C@@H](CCC(=O)NCCCC[C@H](NC(=O)CNC(=O)[C@H](CCCNC(=N)N)NC(=O)CNC(=O)[C@H](C)NC(=O)[C@H](CC(C)C)NC(=O)[C@H](CC(C)C)NC(=O)[C@H](Cc1c[nH]c2ccccc12)NC(=O)[C@H](CC(N)=O)NC(=O)[C@@H](NC(=O)[C@H](Cc1ccccc1)NC(=O)[C@H](CCC(=O)O)NC(=O)C(C)(C)NC(=O)[C@H](C)NC(=O)[C@H](C)NC(=O)[C@H](CCC(N)=O)NC(=O)[C@H](CCCCN)NC(=O)[C@H](CC(=O)O)NC(=O)[C@H](CC(C)C)NC(=O)[C@H](Cc1ccc(O)cc1)NC(=O)[C@@H](NC(=O)[C@H](CO)NC(=O)[C@H](Cc1ccc(O)cc1)NC(=O)[C@H](CC(=O)O)NC(=O)[C@H](CO)NC(=O)[C@@H](NC(=O)[C@H](Cc1ccccc1)NC(=O)[C@@H](NC(=O)CNC(=O)[C@H](CCC(=O)O)NC(=O)CSCC(=O)NCCN1C(=O)CSC1=O)[C@@H](C)O)[C@@H](C)O)[C@@H](C)CC)C(C)C)C(=O)NCC(=O)N1CCC[C@H]1C(=O)N[C@@H](CO)C(=O)N[C@@H](CO)C(=O)NCC(=O)N[C@@H](C)C(=O)N1CCC[C@H]1C(=O)N1CCC[C@H]1C(=O)N1CCC[C@H]1C(=O)N[C@@H](CO)C(N)=O)C(=O)O [Compound 198] (X2-EGTFTSDYSIYLDKQAA[Aib]EFVNWLLAGRGK([γGlu-Palmitoyl])GPSSGAPPPS-NH2) was tested, and the Emax ([1]; Table 3A, cAMP) was 95%, the EC50 [1, 4] was 10 to 100 nM and the Emax ([2]; Table 3A) was 81%. It also gave an EC50 [2, 5] of 10 to 100 nM.

Work on CCCCCCCCCCCCCCCC(=O)N[C@@H](CCC(=O)NCCCC[C@H](NC(=O)[C@H](CO)NC(=O)[C@@H]1CCCN1C(=O)[C@@H]1CCCN1C(=O)[C@@H]1CCCN1C(=O)[C@H](C)NC(=O)CNC(=O)[C@H](CO)NC(=O)[C@H](CO)NC(=O)[C@@H]1CCCN1C(=O)CNC(=O)CNC(=O)[C@H](C)NC(=O)[C@H](CC(C)C)NC(=O)[C@H](CC(C)C)NC(=O)[C@H](Cc1c[nH]c2ccccc12)NC(=O)[C@H](CC(N)=O)NC(=O)[C@@H](NC(=O)[C@H](Cc1ccccc1)NC(=O)[C@H](CCC(=O)O)NC(=O)C(C)(C)NC(=O)[C@H](C)NC(=O)[C@H](C)NC(=O)[C@H](CCC(N)=O)NC(=O)[C@H](CCCCN)NC(=O)[C@H](CC(=O)O)NC(=O)[C@H](CC(C)C)NC(=O)[C@H](Cc1ccc(O)cc1)NC(=O)[C@@H](NC(=O)[C@H](CO)NC(=O)[C@H](Cc1ccc(O)cc1)NC(=O)[C@H](CC(=O)O)NC(=O)[C@H](CO)NC(=O)[C@@H](NC(=O)[C@H](Cc1ccccc1)NC(=O)[C@@H](NC(=O)CNC(=O)[C@H](CCC(=O)O)NC(=O)CSCC(=O)NCCN1C(=O)CSC1=O)[C@@H](C)O)[C@@H](C)O)[C@@H](C)CC)C(C)C)C(=O)O)C(=O)O [Compound 199] yielded an Emax ([1]; Table 3A, cAMP) of 92%, an EC50 [1, 4] of 0.1 to 1 nM and an Emax ([2]; Table 3A) of 78%. The EC50 [2, 5] was 1 to 10 nM.
